Consider 17 molecules from patent publication US20240376090A1, “ISOXAZOLE DERIVATIVES AS MODULATORS OF THE 5-HT2A SEROTONIN RECEPTOR USEFUL FOR THE TREATMENT OF DISORDERED RELATED THERETO” (Arena Pharmaceuticals, Inc., priority 2020, published 2024).

One test concerns the target 5-HT2C receptor (Homo sapiens (Human), UniProt P28335). Nature of the test: HTRF IP-One antagonist assay, 5-HT2C. The following applies: HEK293 cells stably expressing recombinant human receptor; IP accumulation with 80 nM 5-HT. Type of test: cell-based. The protocol:
(§1) HEK293 cells stably expressing 5-HT2 receptors were generated using standard procedures. Cells were dilution cloned and clonal cell lines stably expressing the receptors at low levels were selected for pharmacology studies. In radioligand binding studies using a variety of radiolabeled probes, receptor densities in the 2A, 2B and 2C cell lines were estimated to be 50-70, 150-200, and 10-20 fmol/mg, respectively.
(§2) Inositol phosphate accumulation assays were performed using the HTRF IP-One assay system developed by Cisbio and generally followed the manufacturer's instructions. Briefly, HEK293 cells stably expressing recombinant human receptors were harvested and resuspended in phenol-red free OptiMEM (ThermoFisher), plated into 384-well assay plates (Perkin Elmer, ProxiPlate-Plus® Cat #6008280) at 10,000 cells/well in a volume of 10 μL/well, and incubated overnight at 37° C., 5% CO2. Test compounds were solubilized and serially diluted in DMSO, and then diluted into Assay Buffer (Tris HCl 20 mM, NaCl 150 mM, LiCl 40 mM, pargyline 25 μM, pH 8) containing 80 nM 5-HT. Test compounds were added to the cells (4 μL/well addition, maximal final assay concentration typically 10 μM) and plates, incubated for 2 hrs at 37° C./5% CO2 and then removed from the incubator and allowed to cool to room temperature for 30 minutes prior to addition of IP-One detection reagents. IP-One detection reagents (6 μL/well) were added and plates incubated for 1 hr at room temperature before reading on an HTRF compatible reader such as a Perkin Elmer EnVision® or BMG PheraStar®. Dose-response experiments utilized 10-point curves, typically starting at 10 μM, with 5-fold serial dilutions. Experiments were performed with triplicate data points and independent replicate experiments were performed to ensure data consistency.
For orientation: Time-resolved FRET reads energy transfer from a long-lived donor to a nearby acceptor.

For the next test, the target named is 5-HT2B receptor (Homo sapiens (Human), UniProt P41595). Nature of the test: HTRF IP-One antagonist assay, 5-HT2B. The format is cell-based. The following applies: HEK293 cells stably expressing recombinant human receptor; IP accumulation with 80 nM 5-HT. The protocol:
as §1, §2

The target of test [1] is T1, 5-HT2A receptor (Homo sapiens (Human), UniProt P28223). Nature of the test: Radioligand binding assay ([3H]5-HT competition), 5-HT2A. The following applies: [3H]5-HT radioligand, membranes of HEK293 cells expressing recombinant 5-HT2A; Ki from IC50 by Cheng-Prusoff; read-out: 5-HT2A serotonin binding Ki value.
T1 sequence (P28223 whole entry): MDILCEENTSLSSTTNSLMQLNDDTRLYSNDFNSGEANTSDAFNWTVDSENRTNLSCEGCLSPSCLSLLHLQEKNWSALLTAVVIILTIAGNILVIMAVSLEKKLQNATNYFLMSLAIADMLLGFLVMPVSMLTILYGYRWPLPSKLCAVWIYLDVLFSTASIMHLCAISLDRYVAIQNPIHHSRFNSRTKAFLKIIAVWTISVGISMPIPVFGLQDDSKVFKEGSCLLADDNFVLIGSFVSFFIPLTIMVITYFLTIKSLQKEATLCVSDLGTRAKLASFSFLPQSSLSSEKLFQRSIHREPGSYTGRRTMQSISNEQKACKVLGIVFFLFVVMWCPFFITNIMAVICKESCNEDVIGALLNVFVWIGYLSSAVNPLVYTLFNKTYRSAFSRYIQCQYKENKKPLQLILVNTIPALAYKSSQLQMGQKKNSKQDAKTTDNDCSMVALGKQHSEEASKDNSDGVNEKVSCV
Test [2] deals with T1, 5-HT2A receptor. Nature of the test: HTRF IP-One antagonist assay, 5-HT2A. The following applies: HEK293 cells stably expressing recombinant human receptor; IP accumulation with 80 nM 5-HT. The format is cell-based. The protocol:
as §1, §2

5-HT2B receptor, sequence (P41595 whole entry): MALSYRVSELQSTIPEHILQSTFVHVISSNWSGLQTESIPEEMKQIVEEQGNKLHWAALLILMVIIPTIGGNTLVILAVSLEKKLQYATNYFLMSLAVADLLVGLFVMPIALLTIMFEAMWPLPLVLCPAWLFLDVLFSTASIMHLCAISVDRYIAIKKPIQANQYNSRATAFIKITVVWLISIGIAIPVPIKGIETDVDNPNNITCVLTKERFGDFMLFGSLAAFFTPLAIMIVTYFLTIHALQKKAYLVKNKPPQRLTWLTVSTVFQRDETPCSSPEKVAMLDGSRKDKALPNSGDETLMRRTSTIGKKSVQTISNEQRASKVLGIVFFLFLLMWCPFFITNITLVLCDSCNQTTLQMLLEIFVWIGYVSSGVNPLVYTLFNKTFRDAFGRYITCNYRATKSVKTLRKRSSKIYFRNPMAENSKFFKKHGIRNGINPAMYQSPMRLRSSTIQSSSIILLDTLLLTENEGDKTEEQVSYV
5-HT2C receptor, sequence (P28335 33-458): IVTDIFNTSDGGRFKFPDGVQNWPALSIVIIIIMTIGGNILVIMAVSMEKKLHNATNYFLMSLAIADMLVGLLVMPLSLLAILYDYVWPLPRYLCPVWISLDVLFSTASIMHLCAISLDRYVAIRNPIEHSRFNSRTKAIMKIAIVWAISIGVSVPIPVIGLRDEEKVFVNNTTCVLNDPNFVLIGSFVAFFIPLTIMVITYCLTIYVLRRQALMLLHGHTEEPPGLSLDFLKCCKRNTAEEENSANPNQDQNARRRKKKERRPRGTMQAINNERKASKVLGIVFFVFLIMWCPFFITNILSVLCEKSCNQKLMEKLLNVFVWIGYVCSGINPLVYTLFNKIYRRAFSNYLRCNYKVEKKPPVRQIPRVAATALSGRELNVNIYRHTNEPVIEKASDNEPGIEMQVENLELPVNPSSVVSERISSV

One may read the IC50 as the concentration at which inhibition is half-maximal. In general, Ki refers to a dissociation constant, usually derived from enzyme kinetics or from competition with a known ligand. Regarding `Cc1noc(C)c1-c1cc(NC(=O)c2ccc(F)cc2)ccc1OC[C@H]1CCCCN1` [Compound 219, (R)—N-(3-(3,5-dimethylisoxazol-4-yl)-4-(piperidin-2-ylmethoxy)phenyl)-4-fluorobenzamide], the IC50 is no less than 100000 nM at 5-HT2C receptor, no less than 100000 nM at 5-HT2B receptor and 10.4 nM on 5-HT2A receptor [2]. Also, at 5-HT2A receptor [1], the Ki stood at 2.92 nM.
On to `COc1cccc(C(=O)Nc2ccc(OC[C@H]3CCCCN3)c(-c3c(C)noc3C)c2)c1` [Compound 220, (R)—N-(3-(3,5-dimethylisoxazol-4-yl)-4-(piperidin-2-ylmethoxy)phenyl)-3-methoxybenzamide], for which the IC50 was no less than 100000 nM at 5-HT2C receptor, no less than 100000 nM at 5-HT2B receptor and 2.58 nM at 5-HT2A receptor [2]. Besides, the Ki on 5-HT2A receptor [1] stood at 0.907 nM.
For the molecule `Cc1noc(C)c1-c1cc(NC(=O)Cc2ccccc2)ccc1OC[C@H]1CCCCN1` [Compound 221, (R)—N-(3-(3,5-dimethylisoxazol-4-yl)-4-(piperidin-2-ylmethoxy)phenyl)-2-phenylacetamide], the IC50 is no less than 100000 nM on 5-HT2C receptor, no less than 100000 nM at 5-HT2B receptor and 17.8 nM at 5-HT2A receptor [2]. Besides, on 5-HT2A receptor [1], the Ki stood at 4.22 nM.
`COc1cccc(CC(=O)Nc2ccc(OC[C@H]3CCCCN3)c(-c3c(C)noc3C)c2)c1` [Compound 222, (R)—N-(3-(3,5-dimethylisoxazol-4-yl)-4-(piperidin-2-ylmethoxy)phenyl)-2-(3-methoxyphenyl)acetamide]: the figures for the IC50 on 5-HT2C receptor, at 5-HT2B receptor and at 5-HT2A receptor [2] were no less than 100000 nM, no less than 100000 nM and 53.4 nM, respectively. Besides, the Ki at 5-HT2A receptor [1] came to 4.68 nM.
On to `Cc1noc(C)c1-c1cc(NC(=O)Cc2cccc(F)c2)ccc1OC[C@H]1CCCCN1` [Compound 223, (R)—N-(3-(3,5-dimethylisoxazol-4-yl)-4-(piperidin-2-ylmethoxy)phenyl)-2-(3-fluorophenyl)acetamide], for which the IC50 is no less than 100000 nM on 5-HT2C receptor, no less than 100000 nM on 5-HT2B receptor and 14.7 nM at 5-HT2A receptor [2]. The Ki on 5-HT2A receptor [1] is 1.69 nM.
In the case of `Cc1noc(C)c1-c1cc(NC(=O)Cc2cncc(F)c2)ccc1OC[C@H]1CCCCN1` [Compound 226, (R)—N-(3-(3,5-dimethylisoxazol-4-yl)-4-(piperidin-2-ylmethoxy)phenyl)-2-(5-fluoropyridin-3-yl)acetamide], the IC50 was no less than 100000 nM on 5-HT2C receptor, no less than 100000 nM on 5-HT2B receptor and 10.9 nM at 5-HT2A receptor [2]. On 5-HT2A receptor [1], the Ki was 10.4 nM.
Regarding `CCOC1CC1C(=O)Nc1ccc(OC[C@H]2CCCCN2)c(-c2c(C)noc2C)c1` (stereo partly drawn) [Compound 229, N-(3-(3,5-dimethylisoxazol-4-yl)-4-(((R)-piperidin-2-yl)methoxy)phenyl)-2-ethoxycyclopropane-1-carboxamide], the IC50 is no less than 100000 nM at 5-HT2C receptor, no less than 100000 nM on 5-HT2B receptor and 20.7 nM on 5-HT2A receptor [2]. Further, the Ki on 5-HT2A receptor [1] worked out at 4.72 nM.
On to `Cc1nonc1C(=O)Nc1ccc(OC[C@H]2CCCCN2)c(-c2c(C)noc2C)c1` [Compound 232, (R)—N-(3-(3,5-dimethylisoxazol-4-yl)-4-(piperidin-2-ylmethoxy)phenyl)-4-methyl-1,2,5-oxadiazole-3-carboxamide], for which the IC50 on 5-HT2C receptor is no less than 100000 nM; at 5-HT2B receptor it was no less than 100000 nM; at 5-HT2A receptor [2], 24.8 nM. Further, on 5-HT2A receptor [1], the Ki worked out at 3.86 nM.
For the molecule `Cc1noc(C)c1-c1cc(NC(=O)Cc2ccns2)ccc1OC[C@H]1CCCCN1` [Compound 233, (R)—N-(3-(3,5-dimethylisoxazol-4-yl)-4-(piperidin-2-ylmethoxy)phenyl)-2-(isothiazol-5-yl)acetamide], the IC50 on 5-HT2C receptor is no less than 100000 nM; on 5-HT2B receptor, no less than 100000 nM; at 5-HT2A receptor [2], 9.5 nM. The Ki on 5-HT2A receptor [1] amounted to 1.64 nM.
On to `Cc1noc(C)c1-c1cc(NC(=O)Cc2cnsc2)ccc1OC[C@H]1CCCCN1` [Compound 234, (R)—N-(3-(3,5-dimethylisoxazol-4-yl)-4-(piperidin-2-ylmethoxy)phenyl)-2-(isothiazol-4-yl)acetamide], for which the IC50 on 5-HT2C receptor was no less than 100000 nM; at 5-HT2B receptor, no less than 100000 nM; on 5-HT2A receptor [2] it was 2.39 nM. For the same molecule, the Ki at 5-HT2A receptor [1] was 0.657 nM.
On to `Cc1noc(C)c1-c1cc(NC(=O)C2(F)CC2)ccc1O[C@@H]1CCNC1` [Compound 238, (R)—N-(3-(3,5-dimethylisoxazol-4-yl)-4-(pyrrolidin-3-yloxy)phenyl)-1-fluorocyclopropane-1-carboxamide], for which the IC50 is no less than 100000 nM on 5-HT2C receptor, no less than 100000 nM at 5-HT2B receptor and 45.2 nM at 5-HT2A receptor [2]. In addition, the Ki on 5-HT2A receptor [1] was found to be 3.61 nM.
For `Cc1noc(C)c1-c1cc(NC(=O)c2c(F)cnn2C)ccc1OC1CNC1` [Compound 240, N-(4-(azetidin-3-yloxy)-3-(3,5-dimethylisoxazol-4-yl)phenyl)-4-fluoro-1-methyl-1H-pyrazole-5-carboxamide], the IC50 is no less than 100000 nM at 5-HT2C receptor, no less than 100000 nM on 5-HT2B receptor and 17.8 nM at 5-HT2A receptor [2]. Further, the Ki at 5-HT2A receptor [1] amounted to 1.36 nM.
Consider `Cc1noc(C)c1-c1cc(NC(=O)c2ccccc2)ccc1OC1CNC1` [Compound 241, N-(4-(azetidin-3-yloxy)-3-(3,5-dimethylisoxazol-4-yl)phenyl)benzamide], for which the IC50 was no less than 100000 nM on 5-HT2C receptor, no less than 100000 nM on 5-HT2B receptor and 35 nM at 5-HT2A receptor [2]. On 5-HT2A receptor [1], the Ki amounted to 6.94 nM.
On to `Cc1noc(C)c1-c1cc(NC(=O)c2ccc(F)cc2)ccc1OC1CNC1` [Compound 242, N-(4-(azetidin-3-yloxy)-3-(3,5-dimethylisoxazol-4-yl)phenyl)-4-fluorobenzamide], for which the values for the IC50 at 5-HT2C receptor, at 5-HT2B receptor and at 5-HT2A receptor [2] were 4920 nM, 3390 nM and 44.2 nM, respectively. The Ki at 5-HT2A receptor [1] was 2.1 nM.
`Cc1noc(C)c1-c1cc(NC(=O)c2cccc(F)c2)ccc1OC1CNC1` [Compound 243, N-(4-(azetidin-3-yloxy)-3-(3,5-dimethylisoxazol-4-yl)phenyl)-3-fluorobenzamide]: the results for the IC50 on 5-HT2C receptor, on 5-HT2B receptor and at 5-HT2A receptor [2] were 6210 nM, no less than 100000 nM and 16.5 nM, respectively. For the same molecule, at 5-HT2A receptor [1], the Ki is 1.07 nM.
The corresponding values for `COc1cccc(C(=O)Nc2ccc(OC3CNC3)c(-c3c(C)noc3C)c2)c1` [Compound 244, N-(4-(azetidin-3-yloxy)-3-(3,5-dimethylisoxazol-4-yl)phenyl)-3-methoxybenzamide] are no less than 100000 nM, no less than 100000 nM, 19 nM and 0.85 nM.
For the molecule `Cc1noc(C)c1-c1cc(NC(=O)C2(F)CC2)ccc1OC1CNC1` [Compound 245, N-(4-(azetidin-3-yloxy)-3-(3,5-dimethylisoxazol-4-yl)phenyl)-1-fluorocyclopropane-1-carboxamide], the IC50 was no less than 100000 nM at 5-HT2C receptor, no less than 100000 nM at 5-HT2B receptor and 37.9 nM at 5-HT2A receptor [2]. In addition, on 5-HT2A receptor [1], the Ki was found to be 2.05 nM.
